Test results as given in patent US20250215004A1, “AZOLO COMPOUNDS FOR TREATMENT OF FIBROTIC DISEASES” (GEORG-AUGUST-UNIVERSITÄT GÖTTINGEN STIFTUNG ÖFFENTLICHEN …, priority 2022, published 2025).
In brackets after ≈: the same amount, converted by molar mass.

Legend:
Type in all cases: cell-based
[1] = test system: TK173 cells; assay: Collagen I Western blot in TGFβ1-treated TK173 fibroblasts; conditions: Homo sapiens, Fibroblast, 10 ng/ml TGFβ1 for 5 days, then compound 48 hours, Collagen I immunoblot
Method: (§1) Compound reconstitution. Prior to treatment, each compound was used from a stock solution of a concentration of 10 mg/ml in DMSO. Final concentration of DMSO in cell cultures was kept below 0.1%.
(§2) Cell culture and treatment. The human renal fibroblast cell line TK173 was derived from a normal human kidney (laboratory stock; (G. A. Müller et al., Exp. Nephrol. 1995, 3, 127). Cell line stabilization for research purposes was approved by the Ethics Committee of the Georg-August-University. TK173 cells were cultured in Dulbecco's modified Eagle's medium (DMEM, Gibco, USA) supplemented with 10% fetal bovine serum (FBS, Gibco, Germany) and 1% penicillin-streptomycin (PS, Gibco, USA) at 37° C. in a humidified atmosphere with 5% CO2. Cell line was routinely tested for mycoplasma contamination. To investigate the effect of compounds after profibrotic agent treatment, 3×10^4 TK173 cells were seeded in one well of a 6-well culture plate in normal medium. After 24 hours, the culture medium was removed, and the cells were incubated for a further 24 hours in FBS free culture medium (starvation medium). Then, 10 ng/ml TGFβ1 (R&D Systems, USA) was added to the starvation medium, and the culture medium was changed with fresh TGFβ1 in every alternate day. After 5 days of TGFβ1 treatment, cell culture medium was replaced by starvation medium with compounds at different concentration for following 48 hours of incubation.
Protein Extraction. Total proteins were extracted from the cultured cells by NP40 Cell Lysis Buffer (Invitrogen, USA) containing phosphatase (Sigma-Aldrich, USA) and protease inhibitor (Roche, Switzerland) followed by sonication and centrifugation at 12,000×g for 20 minutes at 4° C. to clear the lysates. The supernatant was collected and measured using Pierce BCA Protein Assay Kit (ThermoFisher Scientific) by PHOmo Microplate Reader (Autobio, China). The samples were stored at −80° C. prior to use.
Immunoblotting. Western blot analysis, 10 μg of extracted proteins were diluted in NuPAGE LDS Samples Buffer (Novex Life technologies, USA) containing 5% 2-Mercaptoethanol (Sigma-Aldrich, Germany), and following denatured for 5 minutes at 95° C. The proteins were resolved by 4-12% NuPAGE SDS-PAGE (Novex Life technologies, USA). Blots were often stripped with Thermo Scientific Restore PLUS Western Blot Stripping Buffer (Thermo Fisher Scientific, Germany) for reprobing. The following antibodies were used for immunoblotting: Collagen I (1:1000; ab233080, Abcam, USA), alpha smooth muscle Actin (1:1000; ab124964, Abcam, USA), GAPDH (1:8000; sc-32233, Santa Cruz, USA). Proteins were detected by LumiGLO chemiluminescent system (Cell Signaling Technology, USA) with appropriate secondary antibodies: anti-mouse HRP (1:2500; Dako, Denmark) and anti-rabbit HRP (1:2500; 7074, Cell Signaling Technology, USA) using ChemiDoc MP Imaging System (Bio-Rad, USA).

[2] = test system: TK173 cells; assay: Collagen I mRNA PCR assay (qPCR, normalized to GAPDH) in TGFβ1-treated TK173 fibroblasts; conditions: Homo sapiens, Fibroblast, 10 ng/ml TGFβ1 for 5 days, then compound 48 hours
Method: as §1, §2
RNA isolation. Total RNA was extracted by the TRIzol reagent (Life technologies, USA) and purified by PureLink RNA Mini Kit (Ambion, USA) according to instructions available from the manufacturer with minor modifications. The samples were stored at −80° C. prior to use. RNA concentrations were measured by NanoDrop Spectrophotometer (ThermoFisher Scientific, USA), and were equilibrated to 100 ng for complementary DNA (cDNA) synthesis.
Quantitative real-time PCR analysis (qPCR). For SYBR Green-based qPCR analysis, cDNA preparation was performed by using DNAse I (Sigma-Aldrich, USA) digestion to remove residual genomic DNA and SuperScript II Reverse Transcriptase kit (Invitrogen, USA) to synthesize cDNA following the manufacturer's detailed instructions. All qPCR reactions were performed using the StepOne Plus Real-Time System (Applied Biosystems, USA) and amplifications were done using the SYBR Green PCR Master Mix (Applied Biosystems, USA). The thermal cycling conditions were initiated to 95° C. for 20 seconds, 40 amplification cycles at 95° C. for 3 seconds and 60° C. for 30 seconds, with one cycle of dissociation at 95° C. for 15 seconds, 60° C. for 60 seconds, and 95° C. for 15 seconds. Three replicates per sample were run in duplicate. The experimental cycle threshold (Ct) values were normalized to those obtained for GAPDH, and the relative gene expression level was determined using the 2_ddCT methods.

[3] = test system: TK173 cells; assay: ELISA to detect secreted type I collagen (Pro-Collagen I alpha 1) in conditioned media of TGFβ1-treated TK173 fibroblasts; conditions: Homo sapiens, Fibroblast, 10 ng/ml TGFβ1 for 5 days, then compound 48 hours, Pro-Collagen I alpha 1 ELISA of conditioned media, read-out: IC50, concentration where the TGFβ-stimulated collagen secretion is attenuated by 50%
Method: as §1, §2
Conditioned media containing the secretome of TK173 fibroblast were harvested after 48 hours of compound treatments. Secretion of pro-Collagen 1 was assessed with Human Pro-Collagen I alpha 1 DuoSet ELISA (R&D Systems, USA). To prepare the ELISA plate, Human Pro-Collagen I α1 Capture Antibody was diluted in ELISA Plate-coating Buffer at 4 μg/ml working concentration. 100 μl of diluted Capture Antibody was added to the 96-well microplates and incubated overnight at room temperature. After three times washing with Wash Buffer, microplates were blocked by adding 300 μl of Reagent Diluent for 1 hour at room temperature. To proceed the ELISA, Human Pro-Collagen I α1 Standards were diluted in Reagent Diluent (range between 31.3 pg/ml-2000 pg/ml) and 100 μl of standards or conditioned mediums were add into designated wells. Microplates were incubated at room temperature for 2 hours. Human Pro-Collagen I α1 Detection Antibody was prepared in Reagent Diluent at 100 ng/ml working concentration and 100 μl of diluted Detection Antibody was applied for 2 hours at room temperature after extensive washing. Then, working solution of Streptavidin-HRP with Reagent Diluent was prepared by diluting 1:40 and added into each well. After 20 minutes at room temperature incubation, microplates were washed and applied with 100 μl of Substrate Solution for 20 minutes followed by Stop Solution after washing. Finally, signals were measured at 450 nm absorbance by PHOmo Microplate Reader (Autobio, China). The amount of pro-collagen 1 antibody fusion was quantified by extrapolating the signal into a linear range of a pro-collagen 1 standard curve. Screening compounds were typically tested in at concentrations between 5 and 200 μg/ml. The IC50 values observed by the dose response curves for each compound (n=4-6, two independent experiments) were obtained by nonlinear regression analysis using Prism 9 software (GraphPad, La Jolla, USA) and represent the concentration where the TGFβ-stimulated collagen secretion is attenuated by 50%.

Structure (SMILES) | IC50 [1] [µg/mL] | IC50 [2] [µg/mL] | IC50 [3] [µg/mL]
Clc1ccc2c(cnn3nnnc23)c1 [Compound 51b, 8-chlorotetrazolo[5,1-a]phthalazine] | < 5 | < 5 | 
CNc1nn2nnnc2c2ncccc12 (single isomer, unassigned) [Compound 27, N-methylpyrido[2,3-d]tetrazolo[1,5-b]pyridazin-6-amine] | < 30 |  | 
Cc1nnc2c3cc(F)ccc3cnn12 [Compound 61a, 9-Fluoro-3-methyl-[1,2,4]triazolo[3,4-a]phthalazine] | < 60 |  | 530 (≈ 2620 µM)
Clc1ccc2cnn3nnnc3c2c1 [Compound 51a, 9-chlorotetrazolo[5,1-a]phthalazine] | ≤ 40 |  | 
c1ccc2c(c1)cnn1cnnc21 [Compound 15, 1,2,4-Triazolo[3,4-a]phthalazine] | < 40 |  | 105 (≈ 617 µM)
[2H]C([2H])([2H])c1nnc2c3ccccc3cnn12 [Compound 12, 3-D3-Methyl-1,2,4-triazolo[3,4-a]phthalazine] | < 5 | < 50 | 
Cc1nn2nnnc2c2ccccc12 [Compound 2, 6-Methyl-tetrazolo[5,1-a]phthalazine] |  |  | 58 (≈ 313 µM)
Cc1nnc2c3cscc3c(Cl)nn12 [Compound 38, 6-chloro-3-methylthieno[3,4-d][1,2,4]triazolo[4,3-b]pyridazine] |  |  | < 80
c1nn2nnnc2c2cscc12 [Compound 41, Tetrazolo[1,5-b]thieno[3,4-d]pyridazine] |  |  | < 60
Cc1nnc2c3cc(F)c(F)cc3cnn12 [Compound 65, 8,9-difluoro-3-methyl-[1,2,4]triazolo[3,4-a]phthalazine] | < 50 |  | < 50
Cc1nnc2c3ccc(Cl)cc3cnn12 [Compound 49b, 8-chloro-3-methyl-[1,2,4]triazolo[3,4-a]phthalazine] |  |  | 30 (≈ 137 µM)
Fc1cccc2cnn3nnnc3c12 [Compound 59a, 10-Fluorotetrazolo[5,1-a]phthalazine] |  |  | < 20
Cc1nnc2c3cc(Cl)ccc3cnn12 [Compound 49a, 9-chloro-3-methyl-[1,2,4]triazolo[3,4-a]phthalazine] | < 50 |  | < 30
CC(C)Oc1nn2nnnc2c2c(Cl)cccc12 [Compound 72, 10-Chloro-6-isopropoxytetrazolo[5,1-a]phthalazine] | < 5 |  | < 5
Fc1ccc2c(cnn3nnnc23)c1 [Compound 63b, 8-fluorotetrazolo[5,1-a]phthalazine] | < 30 |  | < 50
Clc1cc2cnn3nnnc3c2cc1Cl [Compound 55, 8,9-Dichlorotetrazolo[5,1-a]phthalazine] | < 20 |  | < 10
Cc1nn2c(C)nnc2c2ccccc12 [Compound 5, 3,6-Dimethyl-1,2,4-triazolo[3,4-a]phthalazine] |  | < 20 | 39 (≈ 197 µM)

Structure (SMILES) | IC50 [1] [µg/mL] | IC50 [2] [µg/mL] | IC50 [3] [µg/mL]
Fc1cccc2c1cnn1nnnc21 [Compound 59b, 7-fluorotetrazolo[5,1-a]phthalazine] |  |  | < 5
Cc1nnc2c3ccc(F)cc3cnn12 [Compound 61b, 8-fluoro-3-methyl-[1,2,4]triazolo[3,4-a]phthalazine] | < 80 |  | < 30
Cc1nnc2c3ccccc3c(NCCO)nn12 [Compound 7, 2-[(3-methyl-1,2,4-triazolo[3,4-a]phthalazin-6-yl)amino]-ethanol] |  |  | 32 (≈ 132 µM)
c1cc2c(cnn3nnnc23)s1 [Compound 35, Tetrazolo[1,5-b]thieno[3,2-d]pyridazine] | < 40 |  | 30 (≈ 169 µM)
COc1ccc2cnn3c(C)nnc3c2c1 [Compound 69a, 9-Methoxy-3-methyl-[1,2,4]triazolo[3,4-a]phthalazine] | < 30 |  | < 30
Fc1cc2cnn3nnnc3c2cc1F [Compound 67, 8,9-difluorotetrazolo[5,1-a]phthalazine] |  |  | < 3
Cc1nnc2c3cscc3cnn12 [Compound 39, 3-methylthieno[3,4-d][1,2,4]triazolo[4,3-b]pyridazine] |  |  | < 80
OCc1nnc2c3ccccc3cnn12 [Compound 13, 1,2,4-Triazolo[3,4-a]phthalazin-3-yl-methanol] |  |  | 87 (≈ 435 µM)
Cc1nnc2c3c(Cl)cccc3cnn12 [Compound 45, 10-chloro-3-methyl-[1,2,4]triazolo[3,4-a]phthalazine] |  |  | 20 (≈ 91.5 µM)
COc1ccc2c(cnn3c(C)nnc23)c1 [Compound 69b, 8-methoxy-3-methyl-[1,2,4]triazolo[3,4-a]phthalazine] | < 80 |  | < 30
Cc1nnc2c3cc(Cl)c(Cl)cc3cnn12 [Compound 53, 8,9-Dichloro-3-methyl-[1,2,4]triazolo[3,4-a]phthalazine] | < 60 |  | < 20
CCc1nnc2c3ccccc3cnn12 [Compound 14, 3-Ethyl-1,2,4-triazolo[3,4-a]phthalazine] | < 30 |  | 
Cc1nnc2c3ccccc3c(C#N)nn12 [Compound 6, 3-Methyl-1,2,4-triazolo[3,4-a]phthalazine-6-carbonitrile] | < 5 |  | 61 (≈ 292 µM)
COc1cc2cnn3c(C)nnc3c2cc1OC [Compound 9, 8,9-Dimethoxy-3-methyl-1,2,4-triazolo[3,4-a]phthalazine] | < 1 |  | 10 (≈ 40.9 µM)
Fc1ccc2cnn3nnnc3c2c1 [Compound 63a, 9-Fluorotetrazolo[5,1-a]phthalazine] | < 70 |  | < 30
FC(F)(F)c1nnc2c3ccccc3cnn12 [Compound 10, 3-Trifluoromethyl-1,2,4-Triazolo[3,4-a]phthalazine] |  |  | 93 (≈ 390 µM)
Clc1cccc2cnn3nnnc3c12 [Compound 47a, 10-chlorotetrazolo[5,1-a]phthalazine] |  |  | < 5
